Results from US20090221665A1, “Organic Compounds” (priority 2005, published 2009).

Test system: male rats
Assay: Fecal pellet output in male rats after i.p. dosing
Format: in vivo, rat
Details: for fecal pellet output (in words): dosed alone, every 30 mins for 2 hr
Protocol: Methods: In male rats (200-300 g) fecal pellet output was measured every 30 mins for 2 hr following administration of tegaserod (0.01-1.0 mg/kg i.p.), neostigmine (0.01-0.1 mg/kg i.p.) or a combination of both compounds.

Row | SMILES | # Fecal Pellets (Neo 0.01 mg/kg i.p. alone, 30 min) | # Fecal Pellets (Neo 0.01 mg/kg i.p. alone, 60 min) | # Fecal Pellets (Neo 0.01 mg/kg i.p. alone, 90 min) | # Fecal Pellets (Neo 0.01 mg/kg i.p. alone, 120 min) | fecal pellet output (in words) (neostigmine 0.01-0.1 mg/kg i.p.) | # Fecal Pellets (Teg 0.01 mg/kg i.p. alone, 30 min) | # Fecal Pellets (Teg 0.01 mg/kg i.p. alone, 60 min) | # Fecal Pellets (Teg 0.01 mg/kg i.p. alone, 90 min) | # Fecal Pellets (Teg 0.01 mg/kg i.p. alone, 120 min) | # Fecal Pellets (Teg 0.1 mg/kg i.p. alone, 30 min) | # Fecal Pellets (Teg 0.1 mg/kg i.p. alone, 60 min) | # Fecal Pellets (Teg 0.1 mg/kg i.p. alone, 90 min) | # Fecal Pellets (Teg 0.1 mg/kg i.p. alone, 120 min) | fecal pellet output (in words) (tegaserod 0.01-1.0 mg/kg i.p.)
1 | CN(C)C(=O)Oc1cccc([N+](C)(C)C)c1 [Neo, neostigmine] | 0.67 ± 0.33 | 1.00 ± 0.58 | 1.00 ± 0.58 | 1.33 ± 0.67 | dose and time-dependent increase in fecal pellet output |  |  |  |  |  |  |  |  | 
2 | CCCCCNC(=N)N/N=C/c1c[nH]c2ccc(OC)cc12 [Teg, 3-(5-methoxy-1H-indol-3-yl-methylene)-N-pentylcarbazimidamide] |  |  |  |  |  | 0.17 ± 0.17 | 0.17 ± 0.17 | 0.33 ± 0.21 | 1.50 ± 0.62 | 0.83 ± 0.32 | 1.25 ± 0.35 | 1.50 ± 0.34 | 1.83 ± 0.39 | dose and time-dependent increase in fecal pellet output
